ChEMBL document CHEMBL1135557 (Bioorg Med Chem Lett, 2002)
≈ marks a conversion by molar mass, not a printed value.

Columns and labels:
PC-12 = experiment: In vitro cytotoxic activity (growth inhibition) of compound against PC-12 human cancer cell line was determined
HCT-116 = experiment: In vitro cytotoxic activity (growth inhibition) of compound against HCT 116 cancer cell line was determined; format: functional; settings: Homo sapiens
Tubulin = Tubulin (Sus scrofa, UniProt P02554+P02550); experiment: Concentration of compound required to inhibit tubulin polymerization (Microtubule assembly) was determined by the turbidity formation after 20 min of incubation; format: functional
[1] = target: Tubulin alpha chain (Sus scrofa) (UniProt P02550); experiment: Inhibitory binding percentage of compound towards colchicine site in tubulin using tubulin-[3H]colchicine as radioligand at a concentration of 200 uM
Sequence of Tubulin alpha chain (Sus scrofa) (P02550 whole entry, looked up): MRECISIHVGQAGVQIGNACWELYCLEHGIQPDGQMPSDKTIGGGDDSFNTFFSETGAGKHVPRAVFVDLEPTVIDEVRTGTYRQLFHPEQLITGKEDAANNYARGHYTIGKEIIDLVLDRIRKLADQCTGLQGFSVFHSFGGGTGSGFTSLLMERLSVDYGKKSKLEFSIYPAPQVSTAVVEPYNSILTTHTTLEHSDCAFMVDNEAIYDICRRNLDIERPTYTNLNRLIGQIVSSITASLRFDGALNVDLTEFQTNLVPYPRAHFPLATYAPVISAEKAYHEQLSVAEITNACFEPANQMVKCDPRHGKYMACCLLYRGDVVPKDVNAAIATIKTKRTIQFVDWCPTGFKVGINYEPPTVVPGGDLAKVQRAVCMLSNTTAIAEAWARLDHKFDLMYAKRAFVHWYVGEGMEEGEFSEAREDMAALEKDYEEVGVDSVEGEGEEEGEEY

[2] = target: Tubulin alpha chain (Sus scrofa) (UniProt P02550); experiment: Inhibitory binding percentage of compound towards colchicine site in tubulin using tubulin-[3H]colchicine as radioligand at a concentration of 100 uM

| SMILES | GI50 (PC-12) | GI50 (HCT-116) | IC50 (Tubulin) | Inhibitory binding [1] | Inhibitory binding [2] |
| --- | --- | --- | --- | --- | --- |
| Cc1c(/C=C/CN2CCN(c3cccc(Cl)c3)CC2)cnn1-c1ncccn1.Cl | 0.181 µg/mL | 0.254 µg/mL | 35.96 µM | – | – |
| Cc1c(/C=C/CN2CCN(c3cc(F)cc(F)c3)CC2)cnn1-c1ncccn1.Cl | 0.0625 µg/mL | 0.0701 µg/mL | 9.08 µM | 93% | 82% |
| COc1cc2c(c(OC)c1OC)-c1ccc(OC)c(=O)cc1[C@@H](NC(C)=O)CC2 [COLCHICINE] | 0.0315 µg/mL (≈ 0.0789 µM) | 0.0084 µg/mL (≈ 0.021 µM) | – | 100% | 98% |
| CC[C@]1(O)C[C@@H]2CN(CCc3c([nH]c4ccccc34)[C@@](C(=O)OC)(c3cc4c(cc3OC)N(C)[C@H]3[C@@](O)(C(=O)OC)[C@H](OC(C)=O)[C@]5(CC)C=CCN6CC[C@]43[C@@H]65)C2)C1 [VINBLASTINE] | 0.0102 µg/mL (≈ 0.0126 µM) | 0.001 µg/mL (≈ 0.00123 µM) | – | – | – |
| Cc1c(/C=C/CN2CCN(c3cc(F)cc(F)c3)CC2)cnn1-c1ccnc(N)n1.Cl | 0.0199 µg/mL | 0.0329 µg/mL | 3.72 µM | – | – |
| Cc1c(/C=C/CN2CCN(c3cc(F)cc(F)c3)CC2)cnn1-c1nccc(N)n1.Cl | 0.0216 µg/mL | 0.0208 µg/mL | 11.05 µM | – | – |
